Assays:
Assay type in all cases: in vivo
[1] = test system: scented mayweed (Matricaria chamomila L; MATCH); test: Postemergence herbicidal activity of mixtures in cereal crops (greenhouse, visual injury)
Protocol: (§1) The plants were grown for 7-36 days in a greenhouse with an approximate 14 hour photoperiod which was maintained at about 18° C. during the day and 17° C. during the night. Nutrients and water were added on a regular basis and supplemental lighting was provided with overhead metal halide 1000-Watt lamps as necessary. The plants were employed for testing when they reached the second or third true leaf stage.
(§2) Treatments consisted of compound (as listed in Tables 1 through 64) and a second cereal herbicide alone and in combination. […] Control plants were sprayed in the same manner with the solvent blank.
(§3) The treated plants and control plants were placed in a greenhouse as described above and watered by sub-irrigation to prevent wash-off of the test compounds. After 20-22 days, the condition of the test plants as compared with that of the control plants was determined visually and scored on a scale of 0 to 100 percent where 0 corresponds to no injury and 100 corresponds to complete kill.
(§4) The following equation was used to calculate the expected activity of mixtures containing two active ingredients, A and B: Expected=A+B−(A×B/100)

[2] = test system: annual ryegrass (Lolium multiflorum L; LOLMG); test: as above; settings: 125 g/ha, Table 13
Protocol: (§5) Seeds of the desired test plant species were planted in Sun Gro MetroMix® 306 planting mixture, which typically has a pH of 6.0 to 6.8 and an organic matter content of about 30 percent, in plastic pots with a surface area of 103.2 square centimeters (cm^2). […] The plants were grown for 7-36 days in a greenhouse with an approximate 14 hour photoperiod which was maintained at about 18° C. during the day and 17° C. during the night. Nutrients and water were added on a regular basis and supplemental lighting was provided with overhead metal halide 1000-Watt lamps as necessary. The plants were employed for testing when they reached the second or third true leaf stage.
(§6) Treatments consisted of compound (as listed in Tables 1 through 64) and a second cereal herbicide alone and in combination. […] The concentrated stock solutions were diluted to 1.5 mg ai/mL with the addition of 2 volumes of an aqueous mixture containing acetone, water, isopropyl alcohol, DMSO, Agri-dex crop oil concentrate, and Triton® X-77 surfactant in a 64.7:26.0:6.7:2.0:0.7:0.01 v/v ratio. A dilution solution was prepared by mixing 1 volume of 97:3 v/v acetone/DMSO and 2 volumes of an aqueous mixture containing acetone, water, isopropyl alcohol, DMSO, Agri-dex crop oil concentrate, and Triton® X-77 surfactant in a 64.7:26.0:6.7:2.0:0.7:0.01 v/v ratio. Compound requirements are based upon a 12 mL application volume at a rate of 187 liters per hectare (L/ha). […] Formulated compounds were applied to the plant material with an overhead Mandel track sprayer equipped with 8002E nozzles calibrated to deliver 187 L/ha over an application area of 0.503 square meters (m^2) at a spray height of 18 inches […] above average plant canopy. Control plants were sprayed in the same manner with the solvent blank.
as §3
(§7) Colby's equation was used to determine the herbicidal effects expected from the mixtures (Colby, S. R. 1967. Calculation of the synergistic and antagonistic response of herbicide combinations. Weeds 15:20-22.).
as §4

[3] = test system: littleseed Canarygrass (Phalaris minor L; PHAMI); test: as above; settings: 125 g/ha, Table 13
Protocol: as §5, §6, §3, §7, §4

[4] = test system: chickweed (Stellaria media L; STEME); test: as above; settings: for pest or weed control at 140 g/ha: 140 g/ha alone
Protocol: (§8) Seeds of the desired test plant species were planted in Sun Gro MetroMix® 306 planting mixture, which typically has a pH of 6.0 to 6.8 and an organic matter content of about 30 percent, in plastic pots with a surface area of 103.2 square centimeters (cm^2). When required to ensure good germination and healthy plants, a fungicide treatment and/or other chemical or physical treatment was applied. The plants were grown for 7-36 days in a greenhouse with an approximate 14 hour photoperiod which was maintained at about 18° C. during the day and 17° C. during the night. Nutrients and water were added on a regular basis and supplemental lighting was provided with overhead metal halide 1000-Watt lamps as necessary. The plants were employed for testing when they reached the second or third true leaf stage.
(§9) Treatments consisted of compound (as listed in Tables 1 through 64) and a second cereal herbicide alone and in combination. Weighed amounts of esters (methyl) or salts (TEA [triethylammonium], K [potassium]) of 4-amino-3-chloro -6-(4-chloro-2-fluoro-3-methoxyphenyl)pyridine-2-carboxylic acid (Compound A) or of 6-amino-5-chloro-2-(4-chloro-2-fluoro-3-methoxyphenyl)pyrimidine-4-carboxylic acid (Compound B), were placed in 25 milliliter (mL) glass vials and dissolved in a volume of 97:3 v/v acetone/DMSO to obtain 4.5 milligrams (mg) active ingredient (ai)/mL stock solutions. […] The concentrated stock solutions were diluted to 1.5 mg ai/mL with the addition of 2 volumes of an aqueous mixture containing acetone, water, isopropyl alcohol, DMSO, Agri-dex crop oil concentrate, and Triton® X-77 surfactant in a 64.7:26.0:6.7:2.0:0.7:0.01 v/v ratio. A dilution solution was prepared by mixing 1 volume of 97:3 v/v acetone/DMSO and 2 volumes of an aqueous mixture containing acetone, water, isopropyl alcohol, DMSO, Agri-dex crop oil concentrate, and Triton® X-77 surfactant in a 64.7:26.0:6.7:2.0:0.7:0.01 v/v ratio. Compound requirements are based upon a 12 mL application volume at a rate of 187 liters per hectare (L/ha). Spray solutions of the second cereal herbicide and experimental compound mixtures were prepared by adding the stock solutions to the appropriate amount of dilution solution to form 12 mL spray solution with active ingredients in two- and three-way combinations. Formulated compounds were applied to the plant material with an overhead Mandel track sprayer equipped with 8002E nozzles calibrated to deliver 187 L/ha over an application area of 0.503 square meters (m^2) at a spray height of 18 inches (43 cm) above average plant canopy. Control plants were sprayed in the same manner with the solvent blank.
as §3, §7, §4

[5] = test system: Italian ryegrass (Lolium multiflorum L; LOLMU); test: as above; settings: for LOLMU Ob: 25 g/ha
Protocol: as §8, §9, §3, §7, §4

[6] = test system: rigid ryegrass (Lolium rigidum L; LOLRI); test: as above
Protocol: as §8, §9, §3, §7, §4

[7] = test system: wild pansy (Viola tricolor L; VIOTR); test: as above
Protocol: as §1, §2, §3, §4

[8] = test system: Canada thistle (Cirsium arvense L; CIRAR); test: as above
Protocol: as §1, §2, §3, §4

[9] = test system: bird's-eye speedwell (Veronica persica L; VERPE); test: as above
Protocol: as §1, §2, §3, §4

[10] = test system: black mustard (Brassica nigra L; BRSNI); test: as above; settings: Brassica, post-emergence, read-out: BRSNI Ob
Protocol: as §8, §9, §3, §7, §4

[11] = test system: wild buckwheat (Polygonum convolvulus L; POLCO); test: as above
Protocol: as §8, §9, §3, §7, §4

[12] = test system: kochia (Kochia scoparia L; KCHSC); test: as above; settings: 450 g/ha alone
Protocol: as §8, §9, §3, §7, §4

[13] = test system: Leptochloa chinensis (L.) NEES (LEFCH); test: Postemergence herbicidal mixtures for weed control in direct seeded rice (greenhouse, visual % injury); settings: for % Injury Ob: LEFCH
Cyperus iria L. (CYPIR) = test: as above; settings: CYPIR
[14] = test system: Ipomoea hederacea (L.) JACQ. (IPOHE); test: Postemergence herbicidal mixtures for weed control in direct seeded rice (greenhouse, visual % injury after 3 weeks); settings: IPOHE
[15] = test system: windgrass (Apera spica-venti L; APESV); test: Postemergence herbicidal activity of mixtures in cereal crops (greenhouse, visual injury); settings: Apera spica-venti, post-emergence, read-out: APESV Ob
Protocol: as §5, §6, §3, §7, §4

[16] = test system: downy brome (Bromus tectorum L; BROTE); test: as above
Protocol: as §8, §9, §3, §7, §4

[17] = test system: wild oats (Avena fatua L; AVEFA); test: as above; settings: 25 g/ha, Table 17
Protocol: as §5, §6, §3, §7, §4

[18] = test system: annual bluegrass (Poa annua L; POAAN); test: as above; settings: 25 g/ha
Protocol: as §8, §9, §3, §7, §4

[19] = Stellaria media, post-emergence, read-out: STEME Ob

## 2-[4,5-dihydro-4-methyl-4-(1-methylethyl)-5-oxo-1H-imidazol-2-yl]-4(or 5)-methylbenzoic acid [Imazamethabenz, reference compound]
[1]; 125 g/ha
  MATCH Ob: 0%
[2]
  LOLMG Ob: 0%
[3]
  PHAMI: 0%
[4]; 125 g/ha
  STEME Ob: 10%
[5]; 125 g/ha, Table 13
  LOLMU: 0%
[6]; 125 g/ha, Table 13
  LOLRI: 0%

## COc1cc(OC)nc(NC(=O)NS(=O)(=O)N(C)S(C)(=O)=O)n1 [Amidosulfuron]
[7]; Viola tricolor, post-emergence, 10 g/ha, read-out: VIOTR Ob
  pest or weed control at 10 g/ha: 5%
[8]; 10 g/ha
  CIRAR Ob: 20%
[9]; Veronica persica, post-emergence, 10 g/ha, read-out: VERPE Ob
  pest or weed control at 10 g/ha: 5%

## CC(C)N1C(=O)c2ccccc2NS1(=O)=O [Bentazone]
[10]; 120 g/ha
  pest or weed control at 120 g/ha: 50%
[11]; 120 g/ha
  POLCO Ob: 0%

## N#Cc1cc(Br)c(O)c(Br)c1 [Bromoxynil]
[1]; Matricaria, post-emergence, 70 g/ha, read-out: MATCH Ob
  pest or weed control at 70 g/ha: 0%
[10]; 70 g/ha
  pest or weed control at 70 g/ha: 50%
[4]; Stellaria media, post-emergence, 70 g/ha, read-out: STEME Ob
  pest or weed control at 70 g/ha: 0%

## Cc1ccc(NC(=O)N(C)C)cc1Cl [Chlorotoluron]
[10]; 450 g/ha alone
  pest or weed control at 450 g/ha: 50%
[12]
  KCHSC Ob: 50%

## CC1(C)CON(Cc2ccccc2Cl)C1=O [Clomazone]
[13]; 560 g/ha alone
  % Injury Ob: 40%
Cyperus iria L. (CYPIR); 560 g/ha alone
  % Injury Ob: 0%
Cyperus iria L. (CYPIR); 1120 g/ha alone
  % Injury Ob: 0%

## C/C(=N\NC(=O)Nc1cc(F)cc(F)c1)c1ncccc1C(=O)O [Diflufenzopyr]
[14]; 4.38 g/ha alone
  % Injury Ob: 10%
[14]; 8.75 g/ha alone
  % Injury Ob: 40%
[14]; 17.5 g/ha alone
  % Injury Ob: 60%
[14]; 35 g/ha alone
  % Injury Ob: 65%
[13]; 8.75 g/ha alone
  % Injury Ob: 0%
Cyperus iria L. (CYPIR); 4.38 g/ha alone
  % Injury Ob: 10%
Cyperus iria L. (CYPIR); 8.75 g/ha alone
  % Injury Ob: 15%
Cyperus iria L. (CYPIR); 17.5 g/ha alone
  % Injury Ob: 20%
Cyperus iria L. (CYPIR); 35 g/ha alone
  % Injury Ob: 30%

## COc1ncc(F)c2nc(S(=O)(=O)Nc3c(F)cccc3F)nn12 [Florasulam]
[1]; 1.3 g/ha alone
  MATCH Ob: 83%
[7]; 1.25 g/ha
  VIOTR Ob: 10%
[7]; 1.3 g/ha alone
  VIOTR Ob: 53%
[8]; 1.25 g/ha
  CIRAR Ob: 20%
[9]; 1.25 g/ha
  VERPE Ob: 5%
[9]; 1.3 g/ha alone
  VERPE Ob: 28%

## COC(=O)c1c(Cl)nn(C)c1S(=O)(=O)NC(=O)Nc1nc(OC)cc(OC)n1 [Halosulfuron-methyl]
[13]; alone 26 g/ha
  % Injury LEFCH Ob: 0%
[13]; alone 52 g/ha
  % Injury LEFCH Ob: 0%

## O=C(O)Cc1c[nH]c2ccccc12 [Indol-3-acetic acid]
[1]; Matricaria, post-emergence, 140 g/ha alone, read-out: MATCH Ob
  pest or weed control at 140 g/ha: 0%
[4]; [19]
  pest or weed control at 140 g/ha: 0%
[11]; 140 g/ha alone
  POLCO Ob: 0%

## O=C(O)CCCc1c[nH]c2ccccc12 [Indol-3-butyric acid]
[10]; 140 g/ha alone
  pest or weed control at 140 g/ha: 0%
[4]; [19]
  pest or weed control at 140 g/ha: 0%

## COc1cc(OC)nc(NC(=O)NS(=O)(=O)c2cc(CNS(C)(=O)=O)ccc2C(=O)O)n1 [Mesosulfuron, 2-[[[[(4,6-dimethoxy-2-pyrimidinyl)amino]carbonyl]amino]sulfonyl]-4-[[(methylsulfonyl)amino]-methyl]benzoic acid, reference compound]
[1]; Matricaria, post-emergence, 3.75 g/ha, read-out: MATCH Ob
  pest or weed control at 3.75 g/ha: 5%
[8]; 3.75 g/ha
  CIRAR Ob: 20%
[15]; 3.75 g/ha, Table 15
  pest or weed control at 3.75 g/ha: 93%
[4]; Stellaria media, post-emergence, 3.75 g/ha, read-out: STEME Ob
  pest or weed control at 3.75 g/ha: 0%
[16]; 3.75 g/ha, Table 15
  BROTE Ob: 75%
[16]; 3.8 g/ha, Table 8
  BROTE Ob: 73%

## COc1nc(C)nc(=NC(=O)NS(=O)(=O)c2ccccc2C(=O)O)[nH]1 [Metsulfuron]
[8]; 3.75 g/ha
  CIRAR Ob: 20%

## CCCOc1nn(C(=O)NS(=O)(=O)c2ccccc2C(=O)OC)c(=O)n1C [Propoxycarbazone-Na, methyl 2-[[[(4,5-dihydro-4-methyl-5-oxo-3-propoxy-1H-1,2,4-triazol-1-yl)carbonyl]amino]sulfonyl]benzoate, reference compound]
[1]; Matricaria, post-emergence, 15 g/ha, read-out: MATCH Ob
  pest or weed control at 15 g/ha: 50%
[9]; Veronica persica, post-emergence, 15 g/ha, read-out: VERPE Ob
  pest or weed control at 15 g/ha: 5%
[15]; 25 g/ha, Table 17
  pest or weed control at 25 g/ha: 90%
[17]
  AVEFA Ob: 76%
[18]; Table 10
  POAAN Ob: 7%
[18]; Table 17
  POAAN Ob: 5%
[5]; Table 10
  LOLMU Ob: 17%
[5]; Table 17
  LOLMU Ob: 15%
[6]; 25 g/ha, Table 17
  LOLRI Ob: 10%
[16]; 25 g/ha, Table 10
  BROTE Ob: 92%

## COc1nc(C)nc(NC(=O)NS(=O)(=O)c2ccsc2C(=O)O)n1 [Thifensulfuron]
[8]; 3.75 g/ha
  CIRAR Ob: 20%

## COc1nc(C)nc(N(C)C(=O)NS(=O)(=O)c2ccccc2C(=O)O)n1 [Tribenuron]
[8]; 3.75 g/ha
  CIRAR Ob: 20%
